What all share (settings): salmonella enterica subsp. enterica serovar typhimurium
Data set [1] relates to Salmonella typhimurium. In words: Toxicity in Salmonella Typhimurium TA100 up to 100 ug/plate. Format: organism-based.
For data set [2], the system named is Salmonella typhimurium. In words: Mutagenic activity in Salmonella typhimurium TA100 assessed as number of histidine revertants after 48 hrs in presence of phenobarbital treated rat S9 liver homogenate by Ames test. Format: toxicity, organism-based, Liver S9 fraction. Background: In the Ames test, an excess of revertant colonies over the control signals mutagenicity.

Data set [3] has as its system Salmonella typhimurium. In words: Toxicity in Salmonella Typhimurium TA100 at 500 ug/plate. Format: organism-based.
The test system of data set [4] is Salmonella typhimurium. Kind of data set: Mutagenic activity in Salmonella Typhimurium TA100 assessed as increase in number of histidine revertants up to 100 ug/plate after 48 hrs in presence of rat S9 liver homogenate by Ames test. Format: toxicity, organism-based, Liver S9 fraction.

Turning to `COc1cc(OC)c2cc([N+](=O)[O-])c3c(C(=O)O)cc4c(c3c2c1)OCO4` [ARISTOLOCHIC ACID IV], the Activity result was “Non-toxic” in data set [1], “Dose-dependent effect” in data set [2], “Toxic” in data set [3] and “Active” in data set [4].

(Values after ChEMBL document CHEMBL1147374, “Chemical constituents of Aristolochia rigida and mutagenic activity of aristolochic acid IV” (J Nat Prod, 1993).)
